The values that follow come from patent EP1066315B1 (University of Dundee, priority 1998, dated 2008).

The structures appear in SMILES notation. Residues, ends and D or L forms follow the SMILES beside them. *: point of attachment. Fmoc = O=C(OCC1c2ccccc2-c2ccccc21)*

Assay [1] has as its system cathepsin L/B. In words: Hydrolysis of cathepsin L/B substrate Z-Phe-Arg-NHMec by B cell lysosomal fractions. Format: biochemical, human. To be noted: Fig 3b. As to the method:
(§1) The invention will now be described by reference to the following Examples and Figures wherein • Figure 1: Processing of TTCF by a leupeptin-insensitive cysteine endopeptidase activity. (a) TTCF was digested in vitro in the presence of disrupted lysosomes (1-2 µg) in the presence or absence of iodoacetamide (1 mM), leupeptin, E64 or pepstatin (each at 0.1 mg/ml). Digestions were in 0.1 M NH4 acetate at pH 4.5 or Na2HPO4, pH 6.0 or 7.0. After 4 hours at 37°C, the reactions were separated by Tris-tricine SDS-PAGE and stained with Coomassie Blue. (b) Cleavage sites: TTCF digestion products were separated by SDS PAGE and electrophoretically transferred to nitrocellulose membrane. Individual fragments numbered 1-6 were subjected to 5 cycles of Edman degradation. N-terminal sequence obtained is shown in bold following upstream residues from TTCF (tetanus toxin numbering). […] (c) Each fraction was analysed by SDS-PAGE and Western blotting. […] Release of 7-amino-4-methyl coumarin was measured after 10, 20 or 30 minutes. […] At different times the cells were washed, fixed in 0.05 % glutaraldehyde and antigen presentation measured using proliferation of different autologous TTCF-specific T cell clones. c, AEP pre-processing of TTCF speeds antigen presentation. […] Presentation was measured after 60 minutes of antigen pulsing using EBV B cells. […]

For assay [2], the system named is AEP. Briefly: Hydrolysis of asparagine peptide substrate by B cell lysosomal fractions. The assay is classed as biochemical, human. To be noted: increasing concentrations of peptide, Fig 3b. Here is the method: as §1
Assay [3] concerns Human B-cell AEP. Briefly: Digestion of TTCF by human B-cell AEP in the presence of tetrapeptides. Format: biochemical. As to conditions: Fig 3d.
The test system of assay [4] is purified AEP (legumain from pig kidney). Briefly: Digestion of TTCF with purified AEP in the presence of tetrapeptides. Format: biochemical. As to conditions: 0.2 mg/ml peptide; Fig 3a. Here is the method: The invention will now be described by reference to the following Examples and Figures wherein • Figure 1: Processing of TTCF by a leupeptin-insensitive cysteine endopeptidase activity. (a) TTCF was digested in vitro in the presence of disrupted lysosomes (1-2 µg) in the presence or absence of iodoacetamide (1 mM), leupeptin, E64 or pepstatin (each at 0.1 mg/ml). Digestions were in 0.1 M NH4 acetate at pH 4.5 or Na2HPO4, pH 6.0 or 7.0. After 4 hours at 37°C, the reactions were separated by Tris-tricine SDS-PAGE and stained with Coomassie Blue. (b) Cleavage sites: TTCF digestion products were separated by SDS PAGE and electrophoretically transferred to nitrocellulose membrane. Individual fragments numbered 1-6 were subjected to 5 cycles of Edman degradation. N-terminal sequence obtained is shown in bold following upstream residues from TTCF (tetanus toxin numbering). The N-terminal sequence of His-tagged TTCF was obtained for fragments 1 and 3. (c) Residues Asn 1184 and Glu 1184 in TTCF were mutated to alanine (see Methods) and digestions performed as before. The mutation abolishes cleavage at the mutated site but not at the first site (doublet at 47 kD). In this experiment cleavage of the third site was minimal. • Figure 2: TTCF is processed by an asparaginyl endopeptidase. (a) Chromatography of the TTCF processing activity on Mono-S resin. Fractions eluted by NaCl gradient were incubated with the substrates Z-Ala-Ala-Asn-NHMec or Z-Phe-Arg-NHMec in the presence or absence of E64 (trans-epoxysuccinyl-L-leucylamido-(4-guanidino)butane). […] (b) Fractions as above were incubated with 10 µg TTCF in the presence or absence of E64 for 4 hours at 37°C prior to SDS-PAGE analysis. (c) Each fraction was analysed by SDS-PAGE and Western blotting. Electrophoretically transferred material was probed with an affinity purified antiserum raised against the peptide KGIGSGKVLKSGPQC from human legumain^1. • Figure 3: Peptide inhibitors of AEP block asparaginyl endopeptidase activity and TTCF processing in vitro and in vivo. […] Release of 7-amino-4-methyl coumarin was measured after 10, 20 or 30 minutes. […] At different times the cells were washed, fixed in 0.05 % glutaraldehyde and antigen presentation measured using proliferation of different autologous TTCF-specific T cell clones. c, AEP pre-processing of TTCF speeds antigen presentation. […] Presentation was measured after 60 minutes of antigen pulsing using EBV B cells.
We decided to test the possibility that high concentrations of asparagine containing peptides might act as competitive inhibitors. […] To establish that inhibition of AEP was specific, we measured the hydrolysis of different synthetic peptide substrates in the presence and absence of these tetrapeptides.

Regarding `C[C@H](NC(=O)OCC1c2ccccc2-c2ccccc21)C(=O)N[C@@H](CCC(=O)O)C(=O)N[C@@H](CC(N)=O)C(=O)N[C@@H](CCCCN)C(N)=O` [AENK, Ala-Glu-Asn-Lys-NH] (Fmoc-AENK-NH2), the “hydrolysis of the cathepsin L/B substrate, Z-Phe-Arg-NHMec” value in assay [1] is given as “had no effect”. For the same compound, the “cleavage of Z-Val-Ala-Asn-NHMec” value in assay [2] is on record as “completely blocked”. Also, in assay [3], the “inhibition of TTCF digestion by human B-cell AEP” value is recorded as “inhibited”. The “inhibition of processing of TTCF by AEP” value in assay [4] is recorded as “substantially inhibited”.
